{"source": "patent US20220333071A1", "about": "“METHODS OF MAKING, EXPANDING AND PURIFYING MIDBRAIN DOPAMINERGIC PROGENITOR CELLS” (BrainXell, Inc., priority 2021, published 2022)", "origin": "cited, not measured here", "key": {"[1]": {"tested_on": "Wnt-mediated transcription", "settings": "read-out: IC50, inhibition of Wnt-mediated transcription"}, "ALK-1": {"target": "ALK-1 (Homo sapiens, UniProt P37023)", "sequence (P37023 22-503, species assumed)": "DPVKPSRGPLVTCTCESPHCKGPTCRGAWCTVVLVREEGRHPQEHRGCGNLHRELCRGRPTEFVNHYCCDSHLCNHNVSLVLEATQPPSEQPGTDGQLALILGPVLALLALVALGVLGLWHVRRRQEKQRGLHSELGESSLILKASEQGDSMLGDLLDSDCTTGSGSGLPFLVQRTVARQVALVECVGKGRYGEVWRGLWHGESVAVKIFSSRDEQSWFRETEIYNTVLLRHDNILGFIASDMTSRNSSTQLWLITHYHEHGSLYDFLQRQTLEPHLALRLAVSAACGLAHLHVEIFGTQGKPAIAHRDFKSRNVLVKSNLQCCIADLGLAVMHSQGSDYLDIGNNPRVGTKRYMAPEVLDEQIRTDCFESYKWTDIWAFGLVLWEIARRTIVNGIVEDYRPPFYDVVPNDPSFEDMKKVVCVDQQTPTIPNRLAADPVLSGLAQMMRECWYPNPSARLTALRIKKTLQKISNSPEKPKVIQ", "settings": "in vitro kinase assays"}, "ALK-3": {"target": "ALK-3 (Homo sapiens, UniProt P36894)", "sequence (P36894 24-532, species assumed)": "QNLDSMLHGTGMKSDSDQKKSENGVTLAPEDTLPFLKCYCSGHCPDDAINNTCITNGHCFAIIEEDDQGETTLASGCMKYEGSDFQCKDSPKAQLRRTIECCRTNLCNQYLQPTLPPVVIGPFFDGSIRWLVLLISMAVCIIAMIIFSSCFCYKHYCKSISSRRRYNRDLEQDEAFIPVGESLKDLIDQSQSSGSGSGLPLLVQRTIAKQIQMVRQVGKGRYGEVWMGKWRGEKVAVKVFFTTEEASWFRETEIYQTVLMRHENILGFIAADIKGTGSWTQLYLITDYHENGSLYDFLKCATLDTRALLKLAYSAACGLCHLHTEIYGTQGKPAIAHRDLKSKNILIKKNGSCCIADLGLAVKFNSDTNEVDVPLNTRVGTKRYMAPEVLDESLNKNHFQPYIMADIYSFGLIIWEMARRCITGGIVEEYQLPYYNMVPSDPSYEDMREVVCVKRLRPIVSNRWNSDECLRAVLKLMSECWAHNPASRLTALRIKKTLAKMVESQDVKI", "settings": "in vitro kinase assays"}, "ALK5": {"target": "T1, ALK5 (Homo sapiens, UniProt P36897)", "T1 sequence (P36897 34-503)": "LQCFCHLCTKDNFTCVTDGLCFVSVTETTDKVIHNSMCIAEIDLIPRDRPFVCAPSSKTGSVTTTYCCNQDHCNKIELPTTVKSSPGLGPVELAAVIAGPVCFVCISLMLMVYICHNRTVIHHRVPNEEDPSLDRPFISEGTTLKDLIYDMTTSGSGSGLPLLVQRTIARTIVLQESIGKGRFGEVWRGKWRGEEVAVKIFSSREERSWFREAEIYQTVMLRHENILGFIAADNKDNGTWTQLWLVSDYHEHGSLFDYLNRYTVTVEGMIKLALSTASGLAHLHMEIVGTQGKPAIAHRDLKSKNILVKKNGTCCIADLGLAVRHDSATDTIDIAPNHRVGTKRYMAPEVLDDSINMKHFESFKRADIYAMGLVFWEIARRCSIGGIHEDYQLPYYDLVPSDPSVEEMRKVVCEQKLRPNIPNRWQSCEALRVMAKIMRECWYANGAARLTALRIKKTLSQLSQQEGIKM"}, "KDR (VEGFR-2)": {"target": "KDR (VEGFR-2) (Homo sapiens, UniProt P35968)", "sequence (P35968 20-1356, species assumed)": "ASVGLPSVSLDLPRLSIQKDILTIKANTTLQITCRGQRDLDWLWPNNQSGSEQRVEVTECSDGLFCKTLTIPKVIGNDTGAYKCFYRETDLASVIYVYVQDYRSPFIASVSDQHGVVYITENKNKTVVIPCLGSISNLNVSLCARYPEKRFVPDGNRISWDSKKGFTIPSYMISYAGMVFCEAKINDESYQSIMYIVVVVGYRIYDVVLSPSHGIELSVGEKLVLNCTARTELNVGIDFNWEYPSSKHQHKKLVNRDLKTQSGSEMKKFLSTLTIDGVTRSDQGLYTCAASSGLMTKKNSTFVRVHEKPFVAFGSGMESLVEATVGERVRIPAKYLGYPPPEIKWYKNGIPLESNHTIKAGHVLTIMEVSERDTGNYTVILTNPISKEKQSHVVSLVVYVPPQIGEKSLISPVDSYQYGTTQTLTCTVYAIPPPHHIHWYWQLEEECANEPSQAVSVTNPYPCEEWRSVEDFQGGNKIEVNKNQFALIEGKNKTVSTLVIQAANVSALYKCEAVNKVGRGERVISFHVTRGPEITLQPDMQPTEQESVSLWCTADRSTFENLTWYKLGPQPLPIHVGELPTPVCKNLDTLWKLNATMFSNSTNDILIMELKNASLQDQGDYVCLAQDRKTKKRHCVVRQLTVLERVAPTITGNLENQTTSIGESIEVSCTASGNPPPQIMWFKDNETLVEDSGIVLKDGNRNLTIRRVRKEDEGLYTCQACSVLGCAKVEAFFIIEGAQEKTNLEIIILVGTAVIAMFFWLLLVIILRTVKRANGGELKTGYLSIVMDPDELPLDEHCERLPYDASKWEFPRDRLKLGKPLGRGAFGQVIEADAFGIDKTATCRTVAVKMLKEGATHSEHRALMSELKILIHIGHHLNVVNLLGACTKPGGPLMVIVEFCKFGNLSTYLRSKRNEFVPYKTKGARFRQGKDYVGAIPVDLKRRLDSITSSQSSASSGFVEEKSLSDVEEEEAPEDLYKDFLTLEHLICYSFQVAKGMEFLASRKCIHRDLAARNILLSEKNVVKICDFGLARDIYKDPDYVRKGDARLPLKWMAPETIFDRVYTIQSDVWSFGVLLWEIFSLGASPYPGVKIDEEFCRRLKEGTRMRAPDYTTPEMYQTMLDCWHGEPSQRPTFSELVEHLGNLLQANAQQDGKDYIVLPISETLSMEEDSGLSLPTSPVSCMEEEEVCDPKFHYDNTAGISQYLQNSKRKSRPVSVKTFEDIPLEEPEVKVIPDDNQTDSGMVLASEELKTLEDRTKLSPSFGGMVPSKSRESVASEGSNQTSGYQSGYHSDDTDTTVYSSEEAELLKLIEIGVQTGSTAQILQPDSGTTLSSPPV"}, "PDGFRβ": {"target": "PDGFRβ (Homo sapiens, UniProt P09619)", "sequence (P09619 33-1106, species assumed)": "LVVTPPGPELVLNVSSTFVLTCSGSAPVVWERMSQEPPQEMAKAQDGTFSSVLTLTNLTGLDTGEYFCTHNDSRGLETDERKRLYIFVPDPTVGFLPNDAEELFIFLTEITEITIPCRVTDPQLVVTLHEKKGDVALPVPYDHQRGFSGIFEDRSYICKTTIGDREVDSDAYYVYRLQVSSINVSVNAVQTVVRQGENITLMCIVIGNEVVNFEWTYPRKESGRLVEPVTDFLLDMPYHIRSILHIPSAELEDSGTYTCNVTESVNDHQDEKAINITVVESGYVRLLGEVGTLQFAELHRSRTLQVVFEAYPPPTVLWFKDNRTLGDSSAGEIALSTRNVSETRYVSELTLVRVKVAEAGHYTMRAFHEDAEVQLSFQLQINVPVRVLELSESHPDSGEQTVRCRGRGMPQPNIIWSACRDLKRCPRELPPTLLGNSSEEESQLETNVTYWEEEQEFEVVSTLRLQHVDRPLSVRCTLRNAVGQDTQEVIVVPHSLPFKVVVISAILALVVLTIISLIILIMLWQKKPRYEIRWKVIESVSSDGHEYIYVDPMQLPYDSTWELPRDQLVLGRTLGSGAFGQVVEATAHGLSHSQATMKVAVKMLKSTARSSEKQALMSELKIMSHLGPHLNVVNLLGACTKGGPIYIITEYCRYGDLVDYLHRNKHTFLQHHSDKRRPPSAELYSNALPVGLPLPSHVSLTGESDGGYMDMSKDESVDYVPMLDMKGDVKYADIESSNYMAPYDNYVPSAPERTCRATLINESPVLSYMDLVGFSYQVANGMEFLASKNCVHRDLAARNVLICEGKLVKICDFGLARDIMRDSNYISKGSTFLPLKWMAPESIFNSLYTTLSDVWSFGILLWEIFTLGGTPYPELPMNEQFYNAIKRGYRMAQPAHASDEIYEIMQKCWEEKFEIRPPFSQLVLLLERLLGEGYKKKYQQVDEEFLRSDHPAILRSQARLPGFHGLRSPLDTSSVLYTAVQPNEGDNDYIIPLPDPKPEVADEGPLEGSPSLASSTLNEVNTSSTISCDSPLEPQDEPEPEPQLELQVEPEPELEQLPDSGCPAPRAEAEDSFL"}, "[2]": {"tested_on": "BMP4-induced phosphorylation of Smads 1, 5 and 8", "settings": "HEK293 cells"}}, "note": "pIC50: −log10 of the molar value.", "data": [{"smiles": "Cc1cc(-c2ccc(CC(=O)Nc3ccc(-c4cccnc4)cc3)cc2)ccn1", "note": "[Wnt-059, 4-(2-Methyl-4-pyridinyl)-N-[4-(3-pyridinyl)phenyl]benzeneacetamide]", "values": [{"measurement": "pIC50", "setting": "[1]", "value": 10.13}]}, {"smiles": "CC(C)Oc1ccc(-c2cnc3c(-c4ccnc5ccccc45)cnn3c2)cc1", "note": "[DMH-1, 4-[6-[4-(1-Methylethoxy)phenyl]pyrazolo[1,5-a]pyrimidin-3-yl]-quinoline]", "values": [{"measurement": "selectivity for ALK-2 over ALK-1", "setting": "ALK-1", "value": 6, "unit": "fold"}, {"measurement": "selectivity for ALK-2 over ALK-3", "setting": "ALK-3", "value": 19, "unit": "fold"}, {"measurement": "inhibition of AMPK", "setting": "AMPK", "value": "no significant inhibition"}, {"measurement": "inhibition of ALK5", "setting": "ALK5", "value": "no significant inhibition"}, {"measurement": "inhibition of KDR (VEGFR-2)", "setting": "KDR (VEGFR-2)", "value": "no significant inhibition"}, {"measurement": "inhibition of PDGFRβ", "setting": "PDGFRβ", "value": "no significant inhibition"}, {"measurement": "BMP4-induced phosphorylation of Smads 1, 5 and 8", "setting": "[2]", "value": "Blocks"}]}, {"smiles": "Cc1c[nH]c(-c2cnc(NCCNc3ccc(C#N)cn3)nc2-c2ccc(Cl)cc2Cl)n1", "note": "[CHIR99021, 6-(2-(4-(2,4-dichlorophenyl)-5-(4-methyl-1H-imidazol-2-yl)pyrimidin-2-ylamino)ethylamino) nicotinonitrile]", "values": [{"measurement": "IC50 values against rodent GSK3-β homologs", "setting": "rodent GSK3-β homologs", "value": "nanomolar"}]}]}
